{
  "source": "paper PMC11947619",
  "about": "“Molecular mechanism of Mad2 conformational conversion promoted by the Mad2‐interaction motif of Cdc20” (Protein Science : A Publication of the Protein Society, 2025)",
  "key": {"O‐Mad2^LL": {"biological_target": "T1, O‐Mad2^LL (Homo sapiens, UniProt Q13257, A115G/DEL109-114/P116S/R117G)", "T1 construct": "His6-DoubleStrep-TEV (N); made in house", "T1 sequence (Q13257 with tags, fused parts or gaps DEL109-114/A115G/P116S/R117G)": "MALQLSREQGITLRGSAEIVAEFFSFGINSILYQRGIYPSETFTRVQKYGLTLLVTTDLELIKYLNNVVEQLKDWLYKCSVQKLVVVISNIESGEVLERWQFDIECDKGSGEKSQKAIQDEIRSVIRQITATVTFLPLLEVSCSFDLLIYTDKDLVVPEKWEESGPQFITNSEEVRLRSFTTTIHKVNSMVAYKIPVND", "experiment": "Time-resolved NMR: conversion / binding with O-Mad2^LL (loop-less)", "format": "biochemical", "conditions": "two-fold molar excess peptide, 25°C", "experimental": "FIGURE 5 The dynamic β5‐αC loop and C‐terminal residues in O‐Mad2 modulate Mad2 conversion. The O‐ to C‐Mad2 conversion is slowed when the highly dynamic β5‐αC loop is truncated (O‐Mad2^LL) and eliminated in the absence of the C‐terminal ten residues (O‐Mad2^∆C10). Using the side chain resonances of Trp75 and Trp167 as reporters, Mad2 conversion was traced in a 24 h time course at 25°C. Cdc20^MIM‐111‐138 peptides were added at two‐fold molar excess to Mad2 (100 μM). Severe line broadening was observed during the conversion of O‐Mad2^LL, most likely due to dimerization of O‐Mad2^LL with the newly converted C‐Mad2^LL. NMR data for O‐Mad2^R133A with Cdc20^MIM‐111‐138 shown for comparison are from Fischer et al. ([2022]).\nThe cloning of human wild‐type Mad2 and the mutant Mad2^R133A by the USER® method (NEB) into the pRSFDuet‐1 vector (71341‐3, Sigma‐Aldrich) with a His6‐DoubleStrep‐TEV tag at its N‐terminus was described previously (Fischer et al., [2022]). For this study, Mad2 mutants were generated as follows. The Mad2^LL expression construct was generated from the wild‐type Mad2 expression vector (Fischer et al., [2022]) by replacing residues 109–117 (TAKDDSAPR) with GSG. Mad2^ΔC10 and Mad2^Δβ7/β8 were modified from wild‐type Mad2 expression construct by deleting residues 196–205 and 166–205, respectively. Mad2^LL/R133A was modified by substituting Ala for Arg133 from the Mad2^LL expression construct. Mad2^LL/ΔC10 was modified from Mad2^LL by deleting residues 196–205. Mad2^L13A/R133A was generated from the Mad2^R133A mutant. Site‐directed mutagenesis of Mad2 was completed using the QuikChangeTM Lightning Site‐Directed Mutagenesis Kit (Agilent) developed by Stratagene Inc. (La Jolla, CA).\nAll peptides were synthesized by Cambridge Research Biochemicals, UK. Peptides were dialyzed into 20 mM HEPES, pH 7.0, 100 mM NaCl, and 1 mM TCEP for NMR experiments. […]\nMad2LL (grey), Mad2∆C10 (green) and Mad2LL/∆C10 (purple). […] 15N{1H}‐ heteronuclear NOE were measured at 298 K. Regions that are highly dynamic are highlighted in yellow. e. […]"}, "O‐Mad2^R133A": {"biological_target": "T2, O‐Mad2^R133A (Homo sapiens, UniProt Q13257, R133A)", "T2 construct": "unable to collect equivalent data for full‐length O‐Mad2^R133A; His6-DoubleStrep-TEV (N); made in house", "T2 sequence (Q13257 whole entry R133A)": "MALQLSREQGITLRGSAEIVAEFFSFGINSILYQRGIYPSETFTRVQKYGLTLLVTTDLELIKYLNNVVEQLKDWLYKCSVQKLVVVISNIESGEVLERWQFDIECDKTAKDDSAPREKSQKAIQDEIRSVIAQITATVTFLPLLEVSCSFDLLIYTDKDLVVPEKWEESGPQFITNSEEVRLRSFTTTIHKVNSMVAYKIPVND", "conditions": "100 μM O-Mad2^R133A, two-fold molar excess peptide, 25°C, 20 mM HEPES pH 7.0, 100 mM NaCl, 1 mM TCEP, 5% D2O; Trp75/Trp167 indole NH reporters; 12 min per spectrum; ref Fischer et al., [2022]; cited from earlier work", "experimental": "In contrast, conversion took ~24 h in the absence of Cdc20^MIM‐111‐138 peptide (Fischer et al., [2022]) (Figures 2c and ..."}},
  "data": [
    {"sequence": "EHQKAWALNLNGFDVEEAKILRLSGKPQ [Cdc20^MIM‐111‐138, Cdc20^MIM peptide spanning Cdc20 residues 111–138]", "values": [
      {"measurement": "binding to Mad2^LL, early spectra", "setting": "O‐Mad2^LL; HSQC, spectra collected within 15 min", "value": "no binding"},
      {"measurement": "slowing of conversion relative to O-Mad2^R133A with Cdc20^MIM-111-138", "setting": "O‐Mad2^LL; O-Mad2^LL 100 μM", "value": 8, "unit": "times"},
      {"measurement": "time for conversion of O-Mad2^LL to C-Mad2^LL:Cdc20^MIM", "setting": "O‐Mad2^LL; O-Mad2^LL 100 μM, Trp75/Trp167 reporters", "value": "~ 250 min"},
      {"measurement": "time to complete Mad2 conversion", "setting": "O‐Mad2^R133A", "value": "less than 30 min"}
    ]}
  ]
}
